# pIC50: −log10 of the molar value.
# Target: human adenosine A2a receptor (Homo sapiens (Human), UniProt P29274)
# Assay: A2a receptor binding affinity, [3H]-NECA radioligand binding test
# Details: [3H]-NECA 37 nM; membrane from HEK-293 cells transfected with human adenosine A2a receptor
# Protocol: The binding affinity of the compounds according to Examples of the present invention to the human adenosine A2a receptor was evaluated by entrusting SB drug discovery in the UK.
# A radioligand binding test was conducted by using [3H]-NECA (5′-N-[adenine-2,8-3H]-ethylcarboxamidoadenosine) and an adenosine A2a membrane. As the adenosine A2a membrane, a cell membrane prepared from HEK-293 cells transfected with human adenosine A2a receptor was used. The membrane used for the test was prepared by incubating with a radioligand until equilibrium was reached. In order to separate the radioligand-bound membrane, the unbound radioligand was separated by using Packard filtermate Harverster and glass filter plates.
# 10 μL of test compound dissolved in binding buffer (50 mM Tris, 10 mM MgCl2, 1 mM EDTA pH 7.4) and 20 μL of [3H]-NECA (final concentration of 37 nM) or reference inhibitor was mixed with 20 μL of A2a membrane in an unbound 96-well plate and incubated at room temperature for one hour. Prior to filtration, a 96-well harvest filter plate was coated with 0.33% polyethylenimine for 30 minutes and then washed with assay buffer. The binding reaction was transferred to the filter plate and washed three times with wash buffer. The dish was then dried, scintillant was added, and radioactivity was counted in a scintillation counter (Topcount NXT, Packard).
# The binding affinity IC50 (μM) for the human adenosine A2a receptor obtained according to the above experimental method is shown in the table below.
# human adenosine A2a receptor, sequence (P29274 whole entry): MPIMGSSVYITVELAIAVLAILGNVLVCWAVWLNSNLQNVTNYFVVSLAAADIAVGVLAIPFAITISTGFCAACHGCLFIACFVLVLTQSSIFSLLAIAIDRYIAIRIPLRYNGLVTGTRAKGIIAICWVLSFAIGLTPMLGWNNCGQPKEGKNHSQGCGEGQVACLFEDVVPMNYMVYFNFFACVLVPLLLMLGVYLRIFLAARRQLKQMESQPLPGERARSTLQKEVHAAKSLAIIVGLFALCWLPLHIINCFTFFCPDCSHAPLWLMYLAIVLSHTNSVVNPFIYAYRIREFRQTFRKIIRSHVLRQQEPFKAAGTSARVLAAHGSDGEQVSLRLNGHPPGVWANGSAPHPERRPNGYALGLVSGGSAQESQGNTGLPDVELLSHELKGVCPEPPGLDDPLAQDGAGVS
row,SMILES,pIC50
1,Nc1nc(N2CCC[C@H]2C(=O)N2CCN(C(=O)C3(C(F)(F)F)CC3)CC2)nc2nc(-c3ccco3)nn12 [Example 74],7.89
2,"C[C@H](Nc1nc(N)n2nc(-c3ccco3)nc2n1)C(=O)N1CCN(CC(C)(C)O)CC1 [Example 349, (S)-2-((7-amino-2-(furan-2-yl)-[1,2,4]triazolo[1,5-a][1,3,5]triazin-5-yl)amino)-1-(4-(2-hydroxy-2-methylpropyl)piperazin-1-yl)propan-1-one]",7.91
3,"Nc1nc(N2CCC[C@H]2C(=O)N2CCC(c3ccccc3)CC2)nc2nc(-c3ccco3)nn12 [Example 128, (S)-(1-(7-amino-2-(furan-2-yl)-[1,2,4]triazolo[1,5-a][1,3,5]triazin-5-yl)pyrrolidin-2-yl)(4-phenylpiperidin-1-yl)methanone]",8.52
4,"CC(C)[C@H](Nc1nc(N)n2nc(-c3ccco3)nc2n1)C(=O)N1CCN(Cc2ccccc2)CC1 [Example 58, (S)-2-((7-amino-2-(furan-2-yl)-[1,2,4]triazolo[1,5-a][1,3,5]triazin-5-yl)amino)-1-(4-benzylpiperazin-1-yl)-3-methylbutan-1-one]",7.82
5,"Nc1nc(N2CC[C@H]2C(=O)N2CCC(C3CCN(CC(F)(F)F)CC3)CC2)cc2nc(-c3ccco3)nn12 [Example 377, (S)-(1-(5-amino-2-(furan-2-yl)-[1,2,4]triazolo[1,5-c]pyrimidin-7-yl)azetidin-2-yl)(1′-(2,2,2-trifluoroethyl)-[4,4′-bipiperidin]-1-yl)methanone]",10.00
6,"COCCN1CCN(C(=O)[C@@H]2CCN2c2nc(N)n3nc(-c4ccc(C)o4)nc3n2)CC1 [Example 221, (S)-(1-(7-amino-2-(5-methylfuran-2-yl)-[1,2,4]triazolo[1,5-a][1,3,5]triazin-5-yl)azetidin-2-yl)(4-(2-methoxyethyl)piperazin-1-yl) methanone]",8.00
7,"CN(C(=O)C1CCN(C(=O)[C@@H]2CCCN2c2nc(N)n3nc(-c4ccco4)nc3n2)CC1)c1ccccc1 [Example 133, 1-((7-amino-2-(furan-2-yl)-[1,2,4]triazolo[1,5-a][1,3,5]triazin-5-yl)-L-prolyl)-N-methyl-N-phenylpiperidin-4-carboxamide]",7.96
8,"C[C@H](Nc1nc(N)n2nc(-c3ccco3)nc2n1)C(=O)N1CCN(c2nccs2)CC1 [Example 251, (S)-2-((7-amino-2-(furan-2-yl)-[1,2,4]triazolo[1,5-a][1,3,5]triazin-5-yl)amino)-1-(4-(thiazol-2-yl)piperazin-1-yl)propan-1-one]",7.89
9,"Cc1ccc(-c2nc3nc(N4CCC[C@H]4C(=O)N4CCN(c5ccccc5)C(=O)C4)nc(N)n3n2)o1 [Example 198, 4-((7-amino-2-(5-methylfuran-2-yl)-[1,2,4]triazolo[1,5-a][1,3,5]triazin-5-yl)-L-prolyl)-1-phenylpiperazin-2-one]",8.10
10,"Nc1nc(N2CC[C@H]2C(=O)N2CCN(CC(F)(F)C(F)(F)C(F)(F)F)CC2)nc2nc(-c3ccco3)nn12 [Example 257, (S)-(1-(7-amino-2-(furan-2-yl)-[1,2,4]triazolo[1,5-a][1,3,5]triazin-5-yl)azetidin-2-yl)(4-(2,2,3,3,4,4,4-heptafluorobutyl)piperazin-1-yl)methanone]",9.10
11,"CC(C)[C@H](Nc1nc(N)n2nc(-c3ccco3)nc2n1)C(=O)N1CCN(CC(F)F)CC1 [Example 355, (S)-2-((7-amino-2-(furan-2-yl)-[1,2,4]triazolo[1,5-a][1,3,5]triazin-5-yl)amino)-1-(4-(2,2-difluoroethyl)piperazin-1-yl)-3-methylbutan-1-one]",7.85
12,"COC[C@H](Nc1nc(N)n2nc(-c3ccco3)nc2n1)C(=O)N1CCN(c2nccs2)CC1 [Example 305, (S)-2-((7-amino-2-(furan-2-yl)-[1,2,4]triazolo[1,5-a][1,3,5]triazin-5-yl)amino)-3-methoxy-1-(4-(thiazol-2-yl)piperazin-1-yl)propan-1-one]",7.80
13,"Nc1nc(N2CCC[C@H]2C(=O)N2CCC(C(=O)Nc3ccccc3)CC2)nc2nc(-c3ccco3)nn12 [Example 78, 1-((7-amino-2-(furan-2-yl)-[1,2,4]triazolo[1,5-a][1,3,5]triazin-5-yl)-L-prolyl)-N-phenylpiperidin-4-carboxamide]",7.85
14,"C[C@H](Nc1nc(N)n2nc(-c3ccco3)nc2n1)C(=O)N1CC2(CCN(Cc3ccc(F)cc3F)CC2)C1 [Example 30, (S)-2-((7-amino-2-(furan-2-yl)-[1,2,4]triazolo[1,5-a][1,3,5]triazin-5-yl)amino)-1-(7-(2,4-difluorobenzyl)-2,7-diazaspiro[3.5]nonan-2-yl)propan-1-one]",9.00
15,"CCCCN1CCC(C2CCN(C(=O)[C@@H]3CCN3c3cc4nc(-c5ccco5)nn4c(N)n3)CC2)CC1 [Example 383, (S)-(1-(5-amino-2-(furan-2-yl)-[1,2,4]triazolo[1,5-c]pyrimidin-7-yl)azetidin-2-yl)(1′-butyl-[4,4′-bipiperidin]-1-yl)methanone]",8.70
16,"COCCN1CCC(C2CCN(C(=O)[C@@H]3CCCN3c3nc(N)n4nc(-c5ccco5)nc4n3)CC2)CC1 [Example 266, (S)-(1-(7-amino-2-(furan-2-yl)-[1,2,4]triazolo[1,5-a][1,3,5]triazin-5-yl)pyrrolidin-2-yl)(1′-(2-methoxyethyl)-[4,4′-bipiperidin]-1-yl) methanone]",7.82

# Results, then the compound that gave them:
row,pIC50,SMILES
1,7.96,"CC(C)NC(=O)N1CCN(C(=O)[C@@H]2CCCN2c2nc(N)n3nc(-c4ccco4)nc3n2)CC1 [Example 116, 4-((7-amino-2-(furan-2-yl)-[1,2,4]triazolo[1,5-a][1,3,5]triazin-5-yl)-L-prolyl)-N-isopropylpiperazin-1-carboxamide]"
2,7.89,"CN1CCN(C(=O)[C@@H]2CCCN2c2nc(N)n3nc(-c4ccco4)nc3n2)CC1=O [Example 145, 4-((7-amino-2-(furan-2-yl)-[1,2,4]triazolo[1,5-a][1,3,5]triazin-5-yl)-L-prolyl)-1-methylpiperazin-2-one]"
3,8.72,"Nc1nc(N[C@@H](CO)C(=O)N2CCN(c3ccc(F)cc3F)CC2)nc2nc(-c3ccco3)nn12 [Example 8, (S)-2-((7-amino-2-(furan-2-yl)-[1,2,4]triazolo[1,5-a][1,3,5]triazin-5-yl)amino)-1-(4-(2,4-difluorophenyl)piperazin-1-yl)-3-hydroxypropan-1-one]"
4,7.70,"Nc1nc(N2CCC[C@H]2C(=O)N2CCCN(CC(F)(F)F)CC2)nc2nc(-c3ccco3)nn12 [Example 278, (S)-(1-(7-amino-2-(furan-2-yl)-[1,2,4]triazolo[1,5-a][1,3,5]triazin-5-yl)pyrrolidin-2-yl)(4-(2,2,2-trifluoroethyl)-1,4-diazepan-1-yl)methanone]"
5,8.05,"Nc1nc(N2CCC[C@H]2C(=O)N2CCN(C3CCC3)CC2)nc2nc(-c3ccco3)nn12 [Example 392, (S)-(1-(7-amino-2-(furan-2-yl)-[1,2,4]triazolo[1,5-a][1,3,5]triazin-5-yl)pyrrolidin-2-yl)(4-cyclobutylpiperazin-1-yl)methanone]"
6,7.89,"C[C@@H]1CN(Cc2ccc(F)cc2F)CCN1C(=O)[C@@H]1CCCN1c1nc(N)n2nc(-c3ccco3)nc2n1 [Example 51, ((S)-1-(7-amino-2-(furan-2-yl)-[1,2,4]triazolo[1,5-a][1,3,5]triazin-5-yl)pyrrolidin-2-yl)((R)-4-(2,4-difluorobenzyl)-2-methylpiperazin-1-yl)methanone]"
7,4.95,Nc1nc(N2CCC[C@@H]2C(=O)N2CCN(C(=O)c3ccccc3)CC2)nc2nc(-c3ccco3)nn12 [Example 98]
8,8.05,"Nc1nc(N2CC[C@H]2C(=O)N2CCN(c3ccc(F)cc3F)CC2)nc2nc(-c3ccco3)nn12 [Example 112, (S)-(1-(7-amino-2-(furan-2-yl)-[1,2,4]triazolo[1,5-a][1,3,5]triazin-5-yl)azetidin-2-yl)(4-(2,4-difluorophenyl)piperazin-1-yl)methanone]"
9,8.05,"Nc1nc(N2CCC[C@H]2C(=O)N2CCN(c3nccs3)CC2)nc2nc(-c3ccco3)nn12 [Example 125, 2-(4-((7-amino-2-(furan-2-yl)-[1,2,4]triazolo[1,5-a][1,3,5]triazin-5-yl)-L-prolyl)piperazin-1-yl)thiazole]"
10,5.30,"Nc1nc(N2CCC[C@@H]2C(=O)N2CCN(Cc3ccccc3)CC2)nc2nc(-c3ccco3)nn12 [Example 95, (R)-(1-(7-amino-2-(furan-2-yl)-[1,2,4]triazolo[1,5-a][1,3,5]triazin-5-yl)pyrrolidin-2-yl)(4-benzylpiperazin-1-yl)methanone]"
11,10.00,"Nc1nc(N[C@H](C(=O)N2CCN(c3ccc(F)cc3F)CC2)C2CCC2)nc2nc(-c3ccco3)nn12 [Example 169, (S)-2-((7-amino-2-(furan-2-yl)-[1,2,4]triazolo[1,5-a][1,3,5]triazin-5-yl)amino)-2-cyclobutyl-1-(4-(2,4-difluorophenyl)piperazin-1-yl)ethan-1-one]"
12,8.30,"Cc1ccc(-c2nc3nc(N4CCC[C@H]4C(=O)N4CCC(c5ccc(F)cc5F)CC4)nc(N)n3n2)o1 [Example 201, (S)-(1-(7-amino-2-(5-methylfuran-2-yl)-[1,2,4]triazolo[1,5-a][1,3,5]triazin-5-yl)pyrrolidin-2-yl)(4-(2,4-difluorophenyl)piperidin-1-yl) methanone]"
